Test results: US20220009920A1 (GB005, Inc., priority 2020, published 2022)

Key:
Experiment in all cases: Large panel kinase profiling
Format in all cases: biochemical
Conditions in all cases: 1 μM test article, 1 mM ATP
[1] = molecular target: T1, MYLK2 (Homo sapiens, UniProt Q9H1R3)
T1 construct: AssayQuant Technologies, Inc. (assay service)
Method in brief: (§1)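 Steps: combine kinase, CSox-Sensor substrate, 1 mM ATP and 1 μM compound; seal and incubate at 30° C.; read top fluorescence kinetically each minute, Ex 360 nm/Em 485 nm.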

[2] = molecular target: T2, AURKA/AURA (Homo sapiens, UniProt O14965)
T2 sequence (O14965 1-403): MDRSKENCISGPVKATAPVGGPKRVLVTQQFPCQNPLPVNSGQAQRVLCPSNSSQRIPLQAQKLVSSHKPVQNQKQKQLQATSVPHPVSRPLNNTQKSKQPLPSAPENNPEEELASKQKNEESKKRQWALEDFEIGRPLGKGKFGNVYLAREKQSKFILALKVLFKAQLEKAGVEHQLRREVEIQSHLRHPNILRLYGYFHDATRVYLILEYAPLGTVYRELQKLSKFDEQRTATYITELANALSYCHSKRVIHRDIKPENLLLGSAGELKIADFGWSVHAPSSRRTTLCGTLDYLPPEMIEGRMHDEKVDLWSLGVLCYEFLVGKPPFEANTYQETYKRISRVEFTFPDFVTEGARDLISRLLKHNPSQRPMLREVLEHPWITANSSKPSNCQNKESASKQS
Method in brief: as §1

[3] = molecular target: PRKCG/PKCG (Homo sapiens, UniProt P05129)
Method in brief: as §1

[4] = molecular target: PRKACA (Homo sapiens, UniProt P17612)
Method in brief: as §1

[5] = molecular target: T3, ULK1 (Homo sapiens, UniProt O75385)
T3 construct: AssayQuant Technologies, Inc. (contract laboratory that ran the panel)
T3 sequence (O75385 1-1050): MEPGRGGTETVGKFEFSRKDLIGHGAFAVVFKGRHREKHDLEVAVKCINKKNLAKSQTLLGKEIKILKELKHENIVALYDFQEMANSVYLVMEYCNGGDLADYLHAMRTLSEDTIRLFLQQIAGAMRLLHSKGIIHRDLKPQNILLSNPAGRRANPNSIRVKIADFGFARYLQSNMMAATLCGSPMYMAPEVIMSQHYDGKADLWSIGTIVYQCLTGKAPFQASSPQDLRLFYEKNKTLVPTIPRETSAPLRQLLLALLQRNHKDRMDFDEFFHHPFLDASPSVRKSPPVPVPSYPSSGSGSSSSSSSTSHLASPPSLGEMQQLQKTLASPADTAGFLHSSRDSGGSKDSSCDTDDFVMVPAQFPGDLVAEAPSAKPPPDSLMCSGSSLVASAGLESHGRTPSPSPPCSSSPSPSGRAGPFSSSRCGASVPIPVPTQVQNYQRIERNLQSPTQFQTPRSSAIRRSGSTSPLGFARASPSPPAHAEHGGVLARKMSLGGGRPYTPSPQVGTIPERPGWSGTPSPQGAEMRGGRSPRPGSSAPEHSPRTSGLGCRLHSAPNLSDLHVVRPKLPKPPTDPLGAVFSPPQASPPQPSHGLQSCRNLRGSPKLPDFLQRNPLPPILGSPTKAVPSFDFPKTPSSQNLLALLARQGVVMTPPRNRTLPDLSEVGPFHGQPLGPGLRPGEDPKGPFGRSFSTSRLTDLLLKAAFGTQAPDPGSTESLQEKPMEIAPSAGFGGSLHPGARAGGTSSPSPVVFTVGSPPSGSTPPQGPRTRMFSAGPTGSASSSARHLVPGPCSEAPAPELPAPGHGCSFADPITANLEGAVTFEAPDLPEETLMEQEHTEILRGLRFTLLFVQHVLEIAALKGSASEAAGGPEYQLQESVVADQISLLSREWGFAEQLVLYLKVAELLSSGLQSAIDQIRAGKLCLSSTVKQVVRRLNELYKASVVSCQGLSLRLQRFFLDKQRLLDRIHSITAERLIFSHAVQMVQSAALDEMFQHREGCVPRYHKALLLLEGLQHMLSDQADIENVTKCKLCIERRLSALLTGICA
Method in brief: as §1

[6] = molecular target: T4, SRPK2 (Homo sapiens, UniProt P78362)
T4 construct: AssayQuant Technologies, Inc. (contract assay)
Method in brief: as §1

[7] = molecular target: T5, DDR2 (Homo sapiens, UniProt Q16832)
T5 construct: AssayQuant Technologies, Inc. (service laboratory)
T5 sequence (Q16832 22-855): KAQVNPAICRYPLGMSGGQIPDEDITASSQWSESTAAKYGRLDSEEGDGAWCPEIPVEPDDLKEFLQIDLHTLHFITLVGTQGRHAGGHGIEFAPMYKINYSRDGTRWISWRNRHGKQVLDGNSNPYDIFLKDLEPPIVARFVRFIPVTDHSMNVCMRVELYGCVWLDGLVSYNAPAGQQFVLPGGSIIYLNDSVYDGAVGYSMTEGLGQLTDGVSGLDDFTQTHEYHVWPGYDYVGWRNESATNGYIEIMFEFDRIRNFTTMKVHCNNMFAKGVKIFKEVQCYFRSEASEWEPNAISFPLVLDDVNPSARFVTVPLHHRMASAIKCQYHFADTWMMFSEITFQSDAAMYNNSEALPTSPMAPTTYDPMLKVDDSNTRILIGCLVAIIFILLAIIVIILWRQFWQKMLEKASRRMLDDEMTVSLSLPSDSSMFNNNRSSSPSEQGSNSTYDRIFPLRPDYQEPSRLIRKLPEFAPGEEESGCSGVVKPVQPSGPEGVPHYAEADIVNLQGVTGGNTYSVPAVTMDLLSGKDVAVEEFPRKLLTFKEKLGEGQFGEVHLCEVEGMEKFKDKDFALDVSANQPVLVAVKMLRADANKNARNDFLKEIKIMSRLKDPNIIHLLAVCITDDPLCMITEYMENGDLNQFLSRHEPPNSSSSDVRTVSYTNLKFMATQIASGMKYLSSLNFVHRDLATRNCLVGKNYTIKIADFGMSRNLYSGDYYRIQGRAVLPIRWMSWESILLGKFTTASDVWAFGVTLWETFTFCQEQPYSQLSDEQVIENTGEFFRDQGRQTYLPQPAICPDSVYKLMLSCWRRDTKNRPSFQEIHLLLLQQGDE
Method in brief: as §1

T4 sequence (P78362 whole entry, species assumed): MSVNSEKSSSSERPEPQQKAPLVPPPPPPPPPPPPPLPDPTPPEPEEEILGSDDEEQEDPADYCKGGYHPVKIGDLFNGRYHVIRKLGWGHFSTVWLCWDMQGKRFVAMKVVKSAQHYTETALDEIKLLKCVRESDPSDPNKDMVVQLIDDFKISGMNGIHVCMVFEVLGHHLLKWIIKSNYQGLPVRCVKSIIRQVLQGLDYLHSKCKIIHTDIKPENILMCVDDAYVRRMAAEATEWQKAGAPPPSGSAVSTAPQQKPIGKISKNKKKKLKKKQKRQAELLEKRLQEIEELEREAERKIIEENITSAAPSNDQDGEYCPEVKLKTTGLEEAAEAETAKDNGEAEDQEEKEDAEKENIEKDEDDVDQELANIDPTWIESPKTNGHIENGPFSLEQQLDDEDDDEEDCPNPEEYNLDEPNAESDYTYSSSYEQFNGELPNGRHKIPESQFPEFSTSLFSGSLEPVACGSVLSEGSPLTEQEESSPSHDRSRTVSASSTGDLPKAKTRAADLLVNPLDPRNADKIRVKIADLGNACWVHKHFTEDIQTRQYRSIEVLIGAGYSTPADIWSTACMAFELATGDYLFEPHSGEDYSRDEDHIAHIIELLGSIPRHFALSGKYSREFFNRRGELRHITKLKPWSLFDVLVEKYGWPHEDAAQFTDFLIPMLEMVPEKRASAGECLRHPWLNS

SMILES	inhibition at 1 µM [1]	inhibition at 1 µM [2]	inhibition at 1 µM [3]	inhibition at 1 µM [4]	inhibition at 1 µM [5]	inhibition at 1 µM [6]	inhibition at 1 µM [7]
C=CC(=O)N1CCCC(c2c(F)cc(C(N)=O)c3[nH]c4c(c23)CCCCC4)C1 (single isomer, unassigned) [Compound 5-6]	16.8%	-42%	-7.3%	11.4%	-3.1%	24.9%	-6.5%
C=CC(=O)N1CCC[C@@H](c2c(F)cc(C(N)=O)c3[nH]c4c(c23)CC2(CC4)CC2)C1 [Compound 6-2, (S)-5-(1-acryloylpiperidin-3-yl)-6-fluoro-1,2,4,9-tetrahydrospiro[carbazole-3,1′-cyclopropane]-8-carboxamide]	-28.4%	-24.7%	8.6%	12.2%	-23.6%	-60.6%	-15.9%
C=CC(=O)N1CCC[C@@H](c2c(F)cc(C(N)=O)c3[nH]c4c(c23)CCC4)C1 [Compound 10-2, (S)-8-(1-acryloylpiperidin-3-yl)-7-fluoro-1,2,3,4-tetrahydrocyclo-penta[b]indole-5-carboxamide]	-33.6%	-12.1%	1.3%	1%	-6.1%	-29.1%	-26.7%
